Here are results for four molecules from PMC4402678, “Twins in spirit - episode I: comparative preclinical evaluation of [^68Ga]DOTATATE and [^68Ga]HA-DOTATATE” (EJNMMI Research, 2015).

Data set [1] in a line: Biodistribution in AR42J tumor-bearing nude mice. As to conditions: mouse, 60 min p.i.
Description: (§3) To establish tumor growth, AR42J cells were detached from the surface of the culture flasks using 1 mM EDTA in PBS, centrifuged, and resuspended in serum-free culture medium. Concentration of the cell suspension was 2.5 to 5 × 10^6 cells/100 μL. Nude mice (CD-1 nu/nu, female, 6 to 8 weeks, from Charles River WIGA GmbH, Sulzfeld, Germany) were injected with 100 μL of the cell suspension subcutaneously into the flank. […] For competition studies, 20 μg TOC (0.8 mg/kg) were coinjected with the radioligands. The animals (groups of 4 to 5) were sacrificed 1 h post injection and the organs of interest were dissected. The radioactivity was measured in weighted tissue samples using a γ-counter. Data are given in %iD/g and are means ± SD.
Data set [2] concerns AR42J tumor-bearing nude mice. Briefly: Biodistribution in AR42J tumor-bearing nude mice. As to conditions: 60 min p.i.
Description: as §3
In the next data set the target is T1, hsst3 (Homo sapiens, UniProt P32745).
T1 construct: purchased Millipore (Schwalbach, Germany), ChemiSCREEN membranes; host or cells: CHO cells stably transfected
Description: Competition binding, hsst3 membrane preparations (Millipore), [125I]SST-28 radioligand. As to conditions: CHO cell membranes (Millipore), [Leu8,D-Trp22,[125I]Tyr25]-somatostatin 28 radioligand; IC50 ± SD; read-out: IC50 hsst 3. As for the experimental part:
(§1) Cell membrane preparations of cells expressing the human sst1–5 were obtained from Millipore (Schwalbach, Germany) and PerkinElmer (Rodgau, Germany). Competition binding studies were performed in close analogy to the manufacturer’s protocol. […] To each well, 10 μL of (Leu^8,D-Trp^22,[^125I]Tyr^25)-somatostatin-28 in binding buffer (approx. 100,000 cpm) were added. Then, 5 μg of cell membrane in 80 μL of binding buffer were added per well and incubated for 60 min at RT. The final radioligand concentration in the incubation mixture was 0.42 nM. Membranes were then aspired onto a glass fiber filtermat (Printed Filtermat B, Wallach, Turku, Finland), which had been preconditioned with 0.33% polyethylenimine for 30 min and then washed five times with 300 μL (per well) of wash buffer (50 mM HEPES, 500 mM NaCl, 0.1% BSA, buffered to pH 7.4 using 1 N NaOH), using a Mach II M Harvester 96 (Tomtec CE, Etten-Leur, The Netherlands). Membranes were washed ten times with 150 μL (per well) of wash buffer. The filtermat was then cut into squares containing the membrane from the respective wells, and membrane bound activity was counted in a γ-counter. IC50 values were calculated from bound activity [cpm] using PRISM 6 software (Graph Pad Software, San Diego, CA, USA).
(§2) Data were determined using membrane preparations of CHO cells stably transfected with the respective sst subtype.

Data set [3] concerns the target T2, hsst5 (Homo sapiens, UniProt P35346). Description: Competition binding, hsst5 membrane preparations (Millipore), [125I]SST-28 radioligand. The arrangement: purchased Millipore (Schwalbach, Germany), ChemiSCREEN membranes; host or cells: CHO cells stably transfected. The note with it: CHO cell membranes (Millipore), [Leu8,D-Trp22,[125I]Tyr25]-somatostatin 28 radioligand; IC50 ± SD; read-out: IC50 hsst 5. How it is done: as §1, §2

In data set [4] the target is T2, hsst5. On the set-up: method as in PMID 10774879. As to conditions: read-out: hsst5 affinity, autoradiography assay; cited from earlier work.
Another data set deals with sst2. On the set-up: method as in PMID 10774879. The note with it: read-out: IC50 (sst2), receptor autoradiography; cited from earlier work.
The conditions of data set [5]: pH 7.4, log P O/PBS.
Description: Lipophilicities of [^68Ga]DOTATATE/HA-DOTATATE and [^177Lu]DOTATATE/HA-DOTATATE were determined via a modified shake flask method as described previously [13].
In another data set the target is T3, hsst1 (Homo sapiens, UniProt P30872).
T3 construct: purchased Millipore (Schwalbach, Germany), ChemiSCREEN membranes; host or cells: CHO cells stably transfected
Briefly: Competition binding, hsst1 membrane preparations (Millipore), [125I]SST-28 radioligand. The note with it: CHO cell membranes (Millipore), [Leu8,D-Trp22,[125I]Tyr25]-somatostatin 28 radioligand; IC50 ± SD; read-out: IC50 hsst 1. As for the experimental part: as §1, §2

Each structure is given as a SMILES string. Like-named read-outs stand apart in the source and are kept apart here. Where only a bound is given, the exact number is not on record here.

T2 sequence (P35346 whole entry): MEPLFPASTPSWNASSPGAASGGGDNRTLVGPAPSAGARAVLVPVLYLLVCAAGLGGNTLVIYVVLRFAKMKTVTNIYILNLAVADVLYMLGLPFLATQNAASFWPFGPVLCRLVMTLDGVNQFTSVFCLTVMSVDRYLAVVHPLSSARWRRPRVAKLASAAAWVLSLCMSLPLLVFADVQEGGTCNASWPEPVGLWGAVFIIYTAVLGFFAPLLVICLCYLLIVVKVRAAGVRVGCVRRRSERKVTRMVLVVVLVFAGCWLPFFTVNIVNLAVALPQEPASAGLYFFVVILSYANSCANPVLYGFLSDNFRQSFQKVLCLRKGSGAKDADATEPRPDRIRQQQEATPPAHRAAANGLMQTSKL
T3 sequence (P30872 whole entry): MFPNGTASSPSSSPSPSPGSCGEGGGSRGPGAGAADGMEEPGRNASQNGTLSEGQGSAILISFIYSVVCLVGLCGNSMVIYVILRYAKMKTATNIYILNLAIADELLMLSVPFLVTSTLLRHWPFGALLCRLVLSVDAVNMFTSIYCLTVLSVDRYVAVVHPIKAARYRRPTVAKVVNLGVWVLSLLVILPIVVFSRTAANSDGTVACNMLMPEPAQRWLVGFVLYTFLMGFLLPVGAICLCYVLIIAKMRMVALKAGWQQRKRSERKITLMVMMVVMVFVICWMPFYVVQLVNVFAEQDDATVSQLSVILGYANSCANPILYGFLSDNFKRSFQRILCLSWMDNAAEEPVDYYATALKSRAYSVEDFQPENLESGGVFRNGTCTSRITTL
T1 sequence (P32745 whole entry): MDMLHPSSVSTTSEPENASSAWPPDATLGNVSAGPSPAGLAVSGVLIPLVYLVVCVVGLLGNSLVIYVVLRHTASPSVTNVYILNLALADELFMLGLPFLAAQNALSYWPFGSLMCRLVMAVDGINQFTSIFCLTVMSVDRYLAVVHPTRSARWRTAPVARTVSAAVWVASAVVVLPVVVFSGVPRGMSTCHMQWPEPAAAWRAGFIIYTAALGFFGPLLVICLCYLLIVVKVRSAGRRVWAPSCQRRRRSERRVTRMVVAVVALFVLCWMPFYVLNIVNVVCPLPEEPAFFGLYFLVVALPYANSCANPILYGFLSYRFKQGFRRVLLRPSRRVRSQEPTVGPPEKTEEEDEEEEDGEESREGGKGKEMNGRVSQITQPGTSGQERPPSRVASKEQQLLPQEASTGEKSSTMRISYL

In general, tissue uptake refers to the share of the injected amount in each gram of the tissue. Low values mean little accumulation, high ones strong accumulation. Turning to `C[C@@H](O)[C@H](NC(=O)[C@@H]1CSSC[C@H](NC(=O)[C@@H](Cc2ccccc2)NC(=O)CN2CCN(CC(=O)O)CCN(CC(=O)O)CCN(CC(=O)O)CC2)C(=O)N[C@@H](Cc2ccc(O)c(I)c2)C(=O)N[C@H](Cc2c[nH]c3ccccc23)C(=O)N[C@@H](CCCCN)C(=O)N[C@@H]([C@@H](C)O)C(=O)N1)C(=O)O` [[^68Ga]HA-DOTATATE, [^68Ga]DOTA-3-iodo-Tyr^3-octreotate, metal not drawn], the tissue uptake at 1 h in data set [1] (AR42J tumor, intravenous, Biodistribution AR42J tumor, Competition, coinjection of 20 μg/mouse unlabeled TOC, n = 3) turned out to be 5.6 ± 0.7 %ID/g; in data set [1] (AR42J tumor, iv, 25 pmol/mouse, Biodistribution AR42J tumor, Control, tracer only, n = 5) it was 33.6 ± 10.9 %ID/g; in data set [1] (adrenals, intravenous, Biodistribution Adrenals, Competition, coinjection of 20 μg/mouse unlabeled TOC, n = 3), 1 ± 0.3 %ID/g; in data set [1] (adrenals, iv, 25 pmol/mouse, Biodistribution Adrenals, Control, tracer only, n = 5), 10.8 ± 3.2 %ID/g; in data set [1] (blood, intravenous, Biodistribution Blood, Competition, coinjection of 20 μg/mouse unlabeled TOC, n = 3), 2.5 ± 0.6 %ID/g; in data set [1] (blood, iv, 25 pmol/mouse, Biodistribution Blood, Control, tracer only, n = 5), 0.7 ± 0.3 %ID/g. The tissue uptake at 1 h in data set [1] (heart, intravenous, Biodistribution Heart, Competition, coinjection of 20 μg/mouse unlabeled TOC, n = 3) was determined as 1 ± 0.2 %ID/g; in data set [1] (heart, iv, 25 pmol/mouse, Biodistribution Heart, Control, tracer only, n = 5) it was 0.5 ± 0.2 %ID/g; in data set [1] (intestine, intravenous, Biodistribution Intestine, Competition, coinjection of 20 μg/mouse unlabeled TOC, n = 3), 0.8 ± 0.04 %ID/g; in data set [1] (intestine, iv, 25 pmol/mouse, Biodistribution Intestine, Control, tracer only, n = 5) it was 4 ± 0.7 %ID/g; in data set [1] (kidney, intravenous, Biodistribution Kidney, Competition, coinjection of 20 μg/mouse unlabeled TOC, n = 3), 17.1 ± 8.7 %ID/g; in data set [1] (kidney, iv, 25 pmol/mouse, Biodistribution Kidney, Control, tracer only, n = 5), 5.3 ± 1 %ID/g. The tissue uptake at 1 h in data set [1] (liver, intravenous, Biodistribution Liver, Competition, coinjection of 20 μg/mouse unlabeled TOC, n = 3) amounted to 1 ± 0.3 %ID/g; in data set [1] (liver, iv, 25 pmol/mouse, Biodistribution Liver, Control, tracer only, n = 5), 1 ± 0.2 %ID/g; in data set [1] (lung, intravenous, Biodistribution Lung, Competition, coinjection of 20 μg/mouse unlabeled TOC, n = 3), 2.5 ± 0.4 %ID/g; in data set [1] (lung, iv, 25 pmol/mouse, Biodistribution Lung, Control, tracer only, n = 5), 13.2 ± 1 %ID/g; in data set [1] (muscle, intravenous, Biodistribution Muscle, Competition, coinjection of 20 μg/mouse unlabeled TOC, n = 3) it was 0.6 ± 0.4 %ID/g; in data set [1] (muscle, iv, 25 pmol/mouse, Biodistribution Muscle, Control, tracer only, n = 5) it was 0.2 ± 0.1 %ID/g. Also, the tissue uptake at 1 h was 1.5 ± 0.5 %ID/g in data set [1] (pancreas, intravenous, Biodistribution Pancreas, Competition, coinjection of 20 μg/mouse unlabeled TOC, n = 3); 36.6 ± 4.3 %ID/g in data set [1] (pancreas, iv, 25 pmol/mouse, Biodistribution Pancreas, Control, tracer only, n = 5); 0.7 ± 0.2 %ID/g in data set [1] (spleen, intravenous, Biodistribution Spleen, Competition, coinjection of 20 μg/mouse unlabeled TOC, n = 3); 1.9 ± 0.8 %ID/g in data set [1] (spleen, iv, 25 pmol/mouse, Biodistribution Spleen, Control, tracer only, n = 5); 1.9 ± 0.8 %ID/g in data set [1] (stomach, intravenous, Biodistribution Stomach, Competition, coinjection of 20 μg/mouse unlabeled TOC, n = 3); 21.7 ± 4.5 %ID/g in data set [1] (stomach, iv, 25 pmol/mouse, Biodistribution Stomach, Control, tracer only, n = 5).
In the case of `C[C@@H](O)[C@H](NC(=O)[C@@H]1CSSC[C@H](NC(=O)[C@@H](Cc2ccccc2)NC(=O)CN2CCN(CC(=O)O)CCN(CC(=O)O)CCN(CC(=O)O)CC2)C(=O)N[C@@H](Cc2ccc(O)c(I)c2)C(=O)N[C@H](Cc2c[nH]c3ccccc23)C(=O)N[C@@H](CCCCN)C(=O)N[C@@H]([C@@H](C)O)C(=O)N1)C(=O)O` [[^68Ga]HA-DOTATATE] [[^68Ga]DOTA-3-iodo-Tyr^3-octreotate, metal not drawn], in data set [2], the “Uptake in sst-expressing tissues (stomach, adrenals, pancreas, AR42J tumor), factor of increase compared to [^68Ga]DOTATATE” value lay within 1.4 to 2.
As usually defined, the logP is a log measure of how a compound divides between an organic and an aqueous phase. With `C[C@@H](O)[C@H](NC(=O)[C@@H]1CSSC[C@H](NC(=O)[C@@H](Cc2ccccc2)NC(=O)CN2CCN(CC(=O)O)CCN(CC(=O)O)CCN(CC(=O)O)CC2)C(=O)N[C@@H](Cc2ccc(O)cc2)C(=O)N[C@H](Cc2c[nH]c3ccccc23)C(=O)N[C@@H](CCCCN)C(=O)N[C@@H]([C@@H](C)O)C(=O)N1)C(=O)O` [^natGa-DOTATATE, metal not drawn, reference compound], the IC50 was over 1000 nM on hsst3; over 1000 nM at hsst5 [3]; 200 to 500 nM on hsst5 [4]; […] with sst2; over 1000 nM on hsst1. Besides, in data set [5], the logP was -3.69.
Take `C[C@@H](O)[C@H](NC(=O)[C@@H]1CSSC[C@H](NC(=O)[C@@H](Cc2ccccc2)NC(=O)CN2CCN(CC(=O)O)CCN(CC(=O)O)CCN(CC(=O)O)CC2)C(=O)N[C@@H](Cc2ccc(O)c(I)c2)C(=O)N[C@H](Cc2c[nH]c3ccccc23)C(=O)N[C@@H](CCCCN)C(=O)N[C@@H]([C@@H](C)O)C(=O)N1)C(=O)O` [^natGa-HA-DOTATATE, metal not drawn]: the IC50 on hsst3 was over 1000 nM; on hsst5 [3] it was 102 ± 65 nM; at hsst1, over 1000 nM.
